In US20120165330A1, “QUINAZOLINONE AND RELATED ANALOGS AS SIRTUIN MODULATORS” (Sirtris Pharmaceuticals, Inc., priority 2010, published 2012) one finds IC50, Emax and EC1.5 (concentration for 1.5-fold activation) data, which are given here for 9 compounds.

Each structure is given as a SMILES string. Where two headings read alike, the source gives them in different places.

The target of one test is T1, SIRT2 (Homo sapiens, UniProt Q8IXJ6).
T1 sequence (Q8IXJ6 1-389): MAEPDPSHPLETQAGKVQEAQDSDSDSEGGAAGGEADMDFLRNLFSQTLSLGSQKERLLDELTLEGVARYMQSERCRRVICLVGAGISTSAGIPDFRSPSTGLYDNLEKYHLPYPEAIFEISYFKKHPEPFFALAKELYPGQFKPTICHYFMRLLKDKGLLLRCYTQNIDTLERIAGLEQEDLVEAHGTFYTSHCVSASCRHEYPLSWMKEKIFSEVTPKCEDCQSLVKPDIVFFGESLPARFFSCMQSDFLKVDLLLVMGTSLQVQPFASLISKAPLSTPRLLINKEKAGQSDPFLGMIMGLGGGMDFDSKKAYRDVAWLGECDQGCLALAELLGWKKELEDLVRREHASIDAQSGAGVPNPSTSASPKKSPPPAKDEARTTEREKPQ
The test is described as follows: mass spectrometry based assay to identify modulators of SIRT2 inhibition. It is filed as biochemical. The source says:
A mass spectrometry based assay was used to identify modulators of SIRT2 inhibition. […] The peptide is labeled with the fluorophore 5TMR (excitation 540 nm/emission 580 nm) at the C-terminus. The sequence of the peptide substrate is based on p53 with several modifications. In addition, the methionine residue naturally present in the sequence was replaced with the norleucine because the methionine may be susceptible to oxidation during synthesis and purification.
Test compounds may be added to the reaction as described above. The SirT2 gene is cloned into a T7-promoter containing vector and transformed into BL21(DE3). After the 30 minute incubation with SIRT2, 10 μL of 10% formic acid is added to stop the reaction. Reactions are sealed and frozen for later mass spec analysis. Determination of the mass of the substrate peptide allows for precise determination of the degree of acetylation (i.e. starting material) as compared to deacetylated peptide (product).
(§1) This timepoint is the same as that used for test compounds and, within the linear range, the endpoint represents a change in velocity.
For the above assay, SIRT2 protein was expressed and purified as follows. The SirT2 gene was cloned into a T7-promoter containing vector and transformed into BL21(DE3) with chaperone plasmid. The protein was expressed by induction with 0.3 mM IPTG as an N-terminal His-tag fusion protein at 18° C. overnight and harvested at 30,000×g. Cells were lysed with sonication in lysis buffer (50 mM Tris-HCl, 10% glycerol, 300 mM NaCl, pH 7.8) for 10 min. The protein was purified over a Ni-NTA column (GE Healthcare) and eluted with lysis buffer containing 100 to 250 mM imidazole. Fractions containing target protein were pooled and TEV protease (Invitrogen) was added to the protein and incubated at 4° C. overnight in lysis buffer to remove the N-terminal His tag. The treated sample was added back on Ni-NTA column. Target protein was obtained by eluting with lysis buffer with 5 mM imidazole and loaded onto the Q-Sepharose F.F. column. The flow-through fraction of Q-Sepharose F.F. column was then directly re-adsorbed on the SP-Sepharose F.F. column and eluted with 20 mM Tris-HCl, 100 mM NaCl, pH 7.8. The protein was concentrated with 50 ml Amicon Ultra centrifugal-filter device (Millipore), then loaded on S-200 gel filtration column and eluted with 20 mM Tris-HCl, 200 mM NaCl, pH 8.0. The protein was aliquoted and frozen at −80° C. until further use.

A further test concerns the target T2, SIRT1 (Homo sapiens, UniProt Q96EB6).
T2 sequence (Q96EB6 1-747): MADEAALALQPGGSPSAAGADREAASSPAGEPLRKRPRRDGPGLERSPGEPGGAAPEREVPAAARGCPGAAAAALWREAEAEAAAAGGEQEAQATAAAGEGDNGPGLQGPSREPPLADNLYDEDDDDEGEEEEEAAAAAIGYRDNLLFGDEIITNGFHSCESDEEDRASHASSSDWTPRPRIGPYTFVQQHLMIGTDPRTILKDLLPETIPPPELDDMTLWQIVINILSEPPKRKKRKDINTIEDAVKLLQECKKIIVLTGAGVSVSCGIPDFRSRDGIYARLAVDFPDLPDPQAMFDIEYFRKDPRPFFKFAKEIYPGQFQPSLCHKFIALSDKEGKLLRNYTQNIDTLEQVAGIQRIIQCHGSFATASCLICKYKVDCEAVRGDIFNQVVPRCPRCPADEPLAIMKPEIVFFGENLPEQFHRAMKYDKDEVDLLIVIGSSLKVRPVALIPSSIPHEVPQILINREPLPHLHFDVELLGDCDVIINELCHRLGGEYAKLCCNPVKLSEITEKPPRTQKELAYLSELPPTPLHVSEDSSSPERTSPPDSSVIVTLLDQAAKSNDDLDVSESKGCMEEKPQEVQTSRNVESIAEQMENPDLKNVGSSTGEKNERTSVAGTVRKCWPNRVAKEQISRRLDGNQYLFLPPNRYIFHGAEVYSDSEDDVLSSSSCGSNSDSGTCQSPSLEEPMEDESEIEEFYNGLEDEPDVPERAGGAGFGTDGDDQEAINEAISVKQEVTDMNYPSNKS
The test is described as follows: mass spectrometry based assay to identify modulators of SIRT1 activity. It counts as biochemical. Particulars: for Emax: 25 min, percent maximum fold activation of SIRT1, read-out: SIRT1 % FOLD ACT.; for EC1.5 (concentration for 1.5-fold activation): concentration for 1.5-fold activation of SIRT1 deacetylase, 0.5 μM peptide substrate, 120 μM βNAD+, 10 nM SIRT1, 25 min at 25° C.
Text: A mass spectrometry based assay was used to identify modulators of SIRT1 activity. […] The peptide is labeled with the fluorophore 5TMR (excitation 540 nm/emission 580 nm) at the C-terminus. The sequence of the peptide substrate is based on p53 with several modifications. In addition, the methionine residue naturally present in the sequence was replaced with the norleucine because the methionine may be susceptible to oxidation during synthesis and purification.
Test compounds may be added to the reaction as described above. The SirT1 gene is cloned into a T7-promoter containing vector and transformed into BL21(DE3). After the 25 minute incubation with SIRT1, 10 μL of 10% formic acid is added to stop the reaction. Reactions are sealed and frozen for later mass spec analysis. Determination of the mass of the substrate peptide allows for precise determination of the degree of acetylation (i.e. starting material) as compared to deacetylated peptide (product).
as §1
For the above assay, SIRT1 protein was expressed and purified as follows. The SirT1 gene was cloned into a T7-promoter containing vector and transformed into BL21(DE3). The protein was expressed by induction with 1 mM IPTG as an N-terminal His-tag fusion protein at 18° C. overnight and harvested at 30,000×g. Cells were lysed with lysozyme in lysis buffer (50 mM Tris-HCl, 2 mM Tris[2-carboxyethyl]phosphine (TCEP), 10 μM ZnCl2, 200 mM NaCl) and further treated with sonication for 10 min for complete lysis. The protein was purified over a Ni-NTA column (Amersham) and fractions containing pure protein were pooled, concentrated and run over a sizing column ([…]). The peak containing soluble protein was collected and run on an Ion-exchange column (MonoQ). Gradient elution (200 mM-500 mM NaCl) yielded pure protein. This protein was concentrated and dialyzed against dialysis buffer (20 mM Tris-HCl, 2 mM TCEP) overnight. The protein was aliquoted and frozen at −80° C. until further use.

The mark [1] stands for this setting: 2.68 μM peptide substrate, 135 μM βNAD+, 50 nM SIRT2, 30 min at room temperature, read-out: SIRT2 IC50 UM.

By IC50 is commonly meant the concentration at which inhibition is half-maximal. Take `Cc1nc2cccc(NC(=O)c3cscn3)c2c(=O)n1-c1cccc(C(F)(F)F)c1` [Compound 1, N-(2-methyl-4-oxo-3-(3-(trifluoromethyl)phenyl)-3,4-dihydroquinazolin-5-yl)thiazole-4-carboxamide]: at SIRT2 (setting [1]), the half-inhibitory concentration (IC50) was below 10 µM.
Turning to `Cc1nc2cccc(NC(=O)c3cnccn3)c2c(=O)n1-c1cccc(C(F)(F)F)c1` [Compound 2, N-(2-methyl-4-oxo-3-(3-(trifluoromethyl)phenyl)-3,4-dihydroquinazolin-5-yl)pyrazine-2-carboxamide], the Emax at SIRT1 was above 150%. Besides, the EC1.5 (concentration for 1.5-fold activation) on SIRT1 (read-out: SIRT1 EC1.5 µM) was below 50 µM. This compound also registered an IC50 on SIRT2 of 10 to 50 µM.
On to `Cc1nc2cccc(NC(=O)c3cscn3)c2c(=O)n1-c1cccc(OC(F)(F)F)c1` [Compound 3, N-(2-methyl-4-oxo-3-(3-(trifluoromethoxy)phenyl)-3,4-dihydroquinazolin-5-yl)thiazole-4-carboxamide], for which the Emax at SIRT1 is below 150%. The EC1.5 (concentration for 1.5-fold activation) on SIRT1 (read-out: SIRT1 EC1.5 UM) was above 50 µM. For the same compound, at SIRT2 (setting [1]), the concentration for half-maximal inhibition (IC50) was below 10 µM.
On the same counts, the results for `Cc1nc2cccc(NC(=O)c3cnccn3)c2c(=O)n1-c1cccc(OC(F)(F)F)c1` [Compound 4, N-(2-methyl-4-oxo-3-(3-(trifluoromethoxy)phenyl)-3,4-dihydroquinazolin-5-yl)pyrazine-2-carboxamide] are above 150%, below 50 µM and 10 to 50 µM.
The matching figures for `Cc1nc2cccc(NC(=O)Cc3cccnc3)c2c(=O)n1-c1cccc(OC(F)(F)F)c1` [Compound 5, N-(2-methyl-4-oxo-3-(3-(trifluoromethoxy)phenyl)-3,4-dihydroquinazolin-5-yl)-2-(pyridin-3-yl)acetamide]: below 150%, above 50 µM and 10 to 50 µM.
As to `Cc1nc2cccc(NC(=O)c3cccc(OCC(O)CO)n3)c2c(=O)n1-c1cccc(C(F)(F)F)c1` (stereo not drawn) [Compound 6, 6-(2,3-dihydroxypropoxy)-N-(2-methyl-4-oxo-3-(3-(trifluoromethyl)phenyl)-3,4-dihydroquinazolin-5-yl)picolinamide], the Emax on SIRT1 was above 150%. In addition, the EC1.5 (concentration for 1.5-fold activation) on SIRT1 (read-out: SIRT1 EC1.5 µM) was below 50 µM.
With `Cc1nc2cccc(NC(=O)c3cccc(CN4CCOCC4)n3)c2c(=O)n1-c1cccc(C(F)(F)F)c1` [Compound 7, N-(2-methyl-4-oxo-3-(3-(trifluoromethyl)phenyl)-3,4-dihydroquinazolin-5-yl)-6-(morpholinomethyl)picolinamide], on SIRT1, the Emax is above 150%. Besides, the EC1.5 (concentration for 1.5-fold activation) at SIRT1 (read-out: SIRT1 EC1.5 UM) was below 50 µM.
For the compound `Cc1nc2cccc(NC(=O)c3cscn3)c2c(=O)n1-c1cccc(C(F)(F)F)c1` [Compound 8, N-(2-methyl-4-oxo-3-(3-(trifluoromethyl)phenyl)-3,4-dihydroquinazolin-5-yl)thiazole-4-carboxamide], on SIRT1, the Emax is above 150%. Moreover, the EC1.5 (concentration for 1.5-fold activation) on SIRT1 (read-out: SIRT1 EC1.5 UM) was below 50 µM.
On the same counts, the results for `Cc1nc2cccc(NC(=O)c3cccc(OCC(O)CO)n3)c2c(=O)n1-c1cccc(OC(F)(F)F)c1` (stereo not drawn) [Compound 9, 6-(2,3-dihydroxypropoxy)-N-(2-methyl-4-oxo-3-(3-(trifluoromethoxy)phenyl)-3,4-dihydroquinazolin-5-yl)picolinamide] are above 150% and below 50 µM.
